Assay results: PMC9320114 (Molecules, 2022)
Like-named read-outs stand apart in the source and are kept apart here.

Legend:
[1] = biological target: human butyrylcholinesterase (hBChE) (Homo sapiens, UniProt P06276); test: biochemical; assay type: biochemical; conditions: for IC50: read-out: hBChE IC50; for remaining activity at 10 µM: read-out: hBChE RA (%)
Procedure: (§1) Enzyme solutions were prepared by diluting the concentrated enzyme stock solutions (4.6 mg/mL in 10 mM MES-NaOH buffer, pH 6.5) in a sodium phosphate-buffered solution (0.1 M, pH 8.0). […] The final organic solvent (DMSO) content was always 1% (v/v). Reactions were initiated by adding the substrate to the enzyme and inhibitor, which were preincubated for 5 min. […] To determine the blank value (b), the enzyme solution was replaced by a phosphate-buffered solution. The initial velocity (v) was calculated from the slope of the linear trend obtained, with each measurement performed in triplicate. The inhibitory potencies were expressed as RA=(vi − b)/(vo − b), where vi is the velocity in the presence of the test compounds and vo is the control velocity in the presence of DMSO. Seven different concentrations of each compound were used for the IC50 measurements. IC50 values were obtained by plotting the residual enzyme activities against the applied inhibitor concentrations, fitting the experimental data to the 4-parameter Hill equation:(1) Y=Bottom+(Top−Bottom)/1+10^((LogIC50−X)×Hill Slope) where X is the logarithm of the inhibitor concentration, and Y is the residual activity. GraphPad Prism 8.2.0 (GraphPad Software, San Diego, CA, USA) was used for the fitting procedure.

[2] = biological target: T1, murine acetylcholinesterase (mAChE) (Mus musculus, UniProt P21836); test: biochemical; assay type: biochemical; conditions: for remaining activity at 10 µM: residual activity at 10 µM, read-out: mAChE RA (%)
T1 sequence (P21836 32-614): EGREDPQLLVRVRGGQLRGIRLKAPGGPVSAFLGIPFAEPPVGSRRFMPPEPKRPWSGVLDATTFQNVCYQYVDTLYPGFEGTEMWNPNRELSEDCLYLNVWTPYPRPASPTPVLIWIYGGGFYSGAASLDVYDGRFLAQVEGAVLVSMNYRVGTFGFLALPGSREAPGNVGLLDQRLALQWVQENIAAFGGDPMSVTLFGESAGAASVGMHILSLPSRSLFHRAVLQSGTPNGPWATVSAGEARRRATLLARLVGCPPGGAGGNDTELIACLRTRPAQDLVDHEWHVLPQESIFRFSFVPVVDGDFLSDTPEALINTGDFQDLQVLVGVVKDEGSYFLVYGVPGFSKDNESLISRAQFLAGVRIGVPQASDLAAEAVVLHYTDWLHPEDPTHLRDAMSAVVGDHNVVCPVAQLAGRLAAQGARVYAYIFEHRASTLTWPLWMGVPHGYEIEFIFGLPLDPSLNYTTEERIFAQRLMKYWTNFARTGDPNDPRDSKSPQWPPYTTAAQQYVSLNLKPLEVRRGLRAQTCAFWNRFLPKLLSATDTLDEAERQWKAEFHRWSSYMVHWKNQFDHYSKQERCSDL
Procedure: as §1

[3] = biological target: MurA (Escherichia coli, UniProt P0A749); test: Inhibition of MurA, colorimetric malachite green method; assay type: biochemical, bacterial; conditions: Table 1; for MurA RA (%): residual activity at 100 µM; for IC50: read-out: MurA IC50
Procedure: Inhibition of Mur enzymes was monitored with the colorimetric malachite green method, which measured orthophosphate formed during reaction. The mixtures with a final volume of 50 µL contained:
MurA: 50 mM HEPES-NaOH, pH 7.8, 0.005% Triton X-114, 200 µM uridine-diphosphate-N-acetylglucosamine, 100 µM phosphoenolpyruvate, purified MurA, and 50 or 100 µM of each compound tested.
All compounds were soluble in the assay mixtures containing 5% DMSO (v/v). After incubation for 15 min (20 min for DdlB) at 37 °C, the enzyme reaction was terminated by addition of Biomol® reagent (100 µL) and absorbance was measured after 5 min at 650 nm (Synergy™ H4 microplate reader; BioTek Instruments, Inc., BioTek Gen5 Data Analysis Software, version 2.9, Santa Clara, CA, USA). All experiments were performed in duplicate.

[4] = biological target: T2, hMAO-B (Homo sapiens, UniProt P27338); test: biochemical; conditions: residual activity at 10 µM; Table 3
T2 construct: purchased Sigma Aldrich; host or cells: BTI-TN-5B1-4 baculovirus-infected insect cells
T2 sequence (P27338 1-520): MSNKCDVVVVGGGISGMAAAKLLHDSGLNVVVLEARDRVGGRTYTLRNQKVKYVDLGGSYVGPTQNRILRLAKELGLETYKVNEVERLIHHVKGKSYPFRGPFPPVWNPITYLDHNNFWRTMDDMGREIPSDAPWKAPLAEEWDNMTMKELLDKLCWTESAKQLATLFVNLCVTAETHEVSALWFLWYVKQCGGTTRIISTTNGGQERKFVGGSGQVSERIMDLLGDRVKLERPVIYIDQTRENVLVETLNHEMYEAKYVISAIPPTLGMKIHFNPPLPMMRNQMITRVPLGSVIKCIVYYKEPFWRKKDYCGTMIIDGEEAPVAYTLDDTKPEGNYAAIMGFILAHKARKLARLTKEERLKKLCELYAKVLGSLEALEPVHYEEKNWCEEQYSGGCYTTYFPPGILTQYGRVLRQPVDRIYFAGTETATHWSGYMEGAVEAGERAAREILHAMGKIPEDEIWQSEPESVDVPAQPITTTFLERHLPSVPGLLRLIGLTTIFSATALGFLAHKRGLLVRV
From the text: The effects of the compounds on hMAO-A and hMAO-B were investigated using a fluorimetric assay, following a method previously described in the literature. Recombinant human microsomal hMAO enzymes expressed in BTI-TN-5B1-4 baculovirus-infected insect cells, horseradish peroxidase (HRP, type II, lyophilized powder), and p-tyramine hydrochloride were purchased from Sigma Aldrich. 10-Acetyl-3,7-dihydroxyphenoxazine (Amplex Red reagent) was synthesized as described in the literature.
After preincubation, the reaction was started by adding final concentrations of 200 µM Amplex Red reagent, 2 U/mL HRP, and 1 mM p-tyramine hydrochloride. Resorufin production was quantified based on the fluorescence produced (λex = 530 nm; λem = 590 nm) at 37 °C over a 20 min period. For the control experiments, DMSO was used instead of appropriate dilutions of the compounds in DMSO. For the determination of blank (b), the enzyme solution was replaced by a phosphate-buffered solution. Initial velocities were calculated from the obtained trend, with each measurement performed in duplicate. Specific fluorescence emission to determine the final results was calculated after subtracting the blank activity (b). Inhibitory potencies were expressed as RAs, and IC50 values were calculated as described in the section “Inhibition of hBChE and mAChE” above.

[5] = residual activity at 10 µM, Table 4

Sequence of human butyrylcholinesterase (hBChE) (P06276 29-602): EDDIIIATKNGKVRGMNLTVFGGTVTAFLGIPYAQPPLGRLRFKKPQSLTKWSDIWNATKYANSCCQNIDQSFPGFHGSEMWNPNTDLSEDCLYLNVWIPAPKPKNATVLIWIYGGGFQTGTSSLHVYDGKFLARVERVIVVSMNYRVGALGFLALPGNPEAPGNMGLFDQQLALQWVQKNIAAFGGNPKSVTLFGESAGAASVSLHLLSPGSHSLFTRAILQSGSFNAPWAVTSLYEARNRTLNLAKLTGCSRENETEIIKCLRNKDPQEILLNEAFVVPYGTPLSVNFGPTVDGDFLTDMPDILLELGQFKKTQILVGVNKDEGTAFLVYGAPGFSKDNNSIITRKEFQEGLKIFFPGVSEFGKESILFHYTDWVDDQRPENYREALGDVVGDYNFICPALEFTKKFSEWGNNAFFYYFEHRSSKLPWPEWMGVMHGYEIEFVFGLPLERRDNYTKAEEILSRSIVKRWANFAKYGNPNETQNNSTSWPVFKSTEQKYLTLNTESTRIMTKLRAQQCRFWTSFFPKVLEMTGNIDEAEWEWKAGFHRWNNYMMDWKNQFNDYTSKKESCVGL
Sequence of MurA (P0A749 whole entry): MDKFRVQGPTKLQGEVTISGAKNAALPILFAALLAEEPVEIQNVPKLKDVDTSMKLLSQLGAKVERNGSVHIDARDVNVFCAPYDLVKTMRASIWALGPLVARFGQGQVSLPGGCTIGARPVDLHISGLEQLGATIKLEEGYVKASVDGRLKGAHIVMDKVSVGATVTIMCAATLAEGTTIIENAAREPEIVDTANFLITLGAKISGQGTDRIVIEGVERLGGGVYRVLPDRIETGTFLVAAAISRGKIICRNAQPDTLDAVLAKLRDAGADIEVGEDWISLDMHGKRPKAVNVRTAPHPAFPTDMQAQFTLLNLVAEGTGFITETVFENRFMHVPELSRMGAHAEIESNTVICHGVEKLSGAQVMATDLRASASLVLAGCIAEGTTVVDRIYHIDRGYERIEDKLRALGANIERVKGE

SMILES | hBChE RA (%) [1] [%] | mAChE RA (%) [2] [%] | MurA RA (%) [3] [%] | IC50 ([1]; Table 4, IC50 ± SEM) [µM] | remaining activity at 10 µM [1, 5] [%] | remaining activity at 10 µM ([2]; Table 4) [%] | further results
CCCCc1ccc(C#Cc2ccc(CN(C(=O)CC(C)(C)C)c3ccc(F)c(C(=O)O)c3)cc2)cc1 [Compound 1] | 100 | 2 | 0 |  |  |  | IC50 [2]: 1.2 ± 0.05 µM; MurA IC50 (µM) ([3]; IC50 ± SEM): No clear dose-dependency
CC(C)(C)c1ccc(C#Cc2ccc(CN(CC3CC3)c3ccc(O)c(C(=O)O)c3)cc2)cc1 [Compound 2] | 100 | 99 | 64 |  |  |  | 
CC(C)(C)CCN(Cc1ccc(C#Cc2ccc(F)cc2)cc1)C(=O)c1ccc(C(=O)O)cc1 [Compound 3] | 100 | 100 | 58 |  |  |  | 
Cc1ccc(C#Cc2ccc(CN(CCC(C)(C)C)c3ccc(O)c(C(=O)O)c3)cc2)cc1 [Compound 4] | 100 | 100 | 14 |  |  |  | IC50 ([3]; IC50 ± SEM): 102 ± 15 µM
CCCCc1ccc(C#Cc2ccc(CN(CC3CC3)c3ccc(O)c(C(=O)O)c3)cc2)cc1 [Compound 5] | 16 | 2 | 0 |  |  |  | IC50 [1]: 2.4 ± 0.2 µM; IC50 [2]: 1.1 ± 0.1 µM; IC50 ([3]; IC50 ± SEM): 7 ± 3 µM
CC(C)(C)CCN(Cc1ccc(C#Cc2ccc(F)cc2)cc1)C(=O)c1ccc(O)c(C(=O)O)c1 [Compound 6] | 95 | 13 | 0 |  |  |  | IC50 [2]: 4.8 ± 1.3 µM; IC50 ([3]; IC50 ± SEM): 27 ± 7 µM
CCCCCCN(Cc1ccc(C#Cc2ccc(CCCC)cc2)cc1)c1ccc(F)c(C(=O)OC)c1 [Compound 7] | 45 | 19 | 100 |  |  |  | IC50 [1]: ~19.7 µM; IC50 [2]: 0.682 ± 0.086 µM
CCCCCCN(Cc1ccc(C#Cc2ccc(C(C)(C)C)cc2)cc1)c1ccc(F)c(C(=O)O)c1 [Compound 8] | 71 | 22 | 0 |  |  |  | IC50 [2]: 0.368 ± 0.052 µM; IC50 ([3]; IC50 ± SEM): 14 ± 5 µM
COC(=O)c1cc(N(Cc2ccc(C#Cc3ccc(C(C)(C)C)cc3)cc2)CC2CC2)ccc1F [Compound 9] | 80 |  | 10 |  |  |  | IC50 [2]: 1.8 ± 0.45 µM; IC50 ([3]; IC50 ± SEM): 91 ± 13 µM
C1=C(c2cccc3ccccc23)CCN(CCCCc2c[nH]c3ccccc23)C1 [Compound 30] |  |  |  | 0.4 ± 0.057 | 6 | 76 | 
CC(C)c1ccc2[nH]cc(CCCCN3CC=C(c4ccccc4)CC3)c2c1 [Compound 31] |  |  |  | 0.0599 ± 0.0055 | 0 | 44 | IC50 ([2]; Table 4, IC50 ± SEM): 14 ± 4 µM
O=C(O)c1cccc2[nH]cc(CCCCN3CC=C(c4ccccc4)CC3)c12 [Compound 32] |  |  |  | 14.5 ± 2.2 | 49 | 71 | 
Oc1ccc2c(CCCCN3CC=C(c4ccccc4)CC3)c[nH]c2c1 [Compound 33] |  |  |  | 0.267 ± 0.001 | 3 | 61 | 
OCC1=C(c2ccc(F)cc2)CCN(CCCCc2c[nH]c3ccccc23)C1 [Compound 34] |  |  |  | 0.493 ± 0.088 | 7 | 31 | IC50 ([2]; Table 4, IC50 ± SEM): 7 ± 1 µM
N#Cc1ccc2[nH]cc(CCCCN3CC=C(c4ccc5c(c4)OCC5)CC3)c2c1 [Compound 35] |  |  |  | 2.9 ± 0.1 | 31 | 59 | 
O=C(O)c1ccc2[nH]cc(CCCCN3CCc4c(c(=O)oc5ccccc45)C3)c2c1 [Compound 36] |  |  |  |  | 97 | 78 | 
COc1ccc2[nH]cc(CCCCN3CCc4c([nH]c5ccc(OC)cc45)C3)c2c1 [Compound 37] |  |  |  | 2.3 ± 0.1 | 23 | 88 | 
COC(=O)CNC(=O)c1ccc2[nH]cc(CCCCN3CC=C(c4ccccc4)CC3)c2c1 [Compound 38] |  |  |  | 0.319 ± 0.051 | 4 | 100 | 
Fc1ccc2[nH]cc(CCCCN3CC=C(c4ccccc4)CC3)c2c1 [Compound 39] |  |  |  | 0.07 ± 0.005 | 0 | 47 | IC50 ([2]; Table 4, IC50 ± SEM): 15 ± 5 µM
C[C@@H]1O[C@@H]1P(=O)(O)O [Fosfomycin, reference compound] |  |  | 0 |  |  |  | IC50 ([3]; IC50 ± SEM): 0.24 ± 0.02 µM
C[C@H](NCc1ccc(OCc2cccc(F)c2)cc1)C(N)=O [Safinamide, reference compound] |  |  |  |  |  |  | hMAO-B RA [%] [4]: 0%
Nc1c2c(nc3ccccc13)CCCC2 [Tacrine, reference compound] |  |  |  |  |  |  | hBChE RA (%) ([1]; residual activity at 10 µM, Table 1): 0%
